The source of these data is ChEMBL document CHEMBL1949641, “Anti-inflammatory mechanism of 15,16-epoxy-3α-hydroxylabda-8,13(16),14-trien-7-one via inhibition of LPS-induced multicellular signaling pathways” (J Nat Prod, 2012).

Active and inactive are the calls of the source. The rule behind the calls is not given here.

For data set [1], the system named is RAW264.7. Briefly: Antiinflammatory activity in mouse RAW264.7 cells assessed as inhibition of LPS-induced COX2 expression treated 2 hrs before LPS challenge measured after 18 hrs by Western blotting. Type of data set: functional, cell-based. For orientation: Immunoblotting shows a protein as a band on a membrane.
For data set [2], the system named is RAW264.7. Briefly: Cytotoxicity against mouse RAW264.7 cells assessed as cell viability up to 50 uM after 24 hrs by MTT assay. Type of data set: cell-based. The settings on record: raw264.7, 24 h.
Data set [3] concerns RAW264.7. Briefly: Inhibition of LPS-induced NFkappaB/AP-1 DNA binding activity in mouse RAW264.7 cells treated 2 hrs before LPS challenge measured after 1 hr by electrophoretic mobility shift assay. It is filed as cell-based. A general note: Mobility shift assays separate free from complexed probe on a gel.
Data set [4] concerns RAW264.7. Put plainly: Inhibition of LPS-induced NF-kappaB activation in mouse RAW264.7 cells assessed as inhibition p38alpha/beta phosphorylation at 50 uM treated 2 hrs before LPS challenge measured after 30 mins by Western blot analysis. It is filed as cell-based.
In data set [5] the test system is RAW264.7. Briefly: Inhibition of NF-kappaB transcriptional activity expressed in mouse RAW264.7 cells assessed as inhibition of LPS-induced secretory alkaline phosphatase expression treated 2 hrs before LPS challenge measured after 18 hrs. It is filed as cell-based.
The subject of data set [6] is RAW264.7. Put plainly: Inhibition of NF-kappaB transcriptional activity expressed in mouse RAW264.7 cells assessed as inhibition of LPS-induced secretory alkaline phosphatase expression at 50 uM treated 2 hrs before LPS challenge measured after 18 hrs. It is filed as cell-based.
Data set [7] addresses T1, Nuclear factor NF-kappa-B p105 subunit (Mus musculus) (UniProt P25799).
T1 sequence (whole entry): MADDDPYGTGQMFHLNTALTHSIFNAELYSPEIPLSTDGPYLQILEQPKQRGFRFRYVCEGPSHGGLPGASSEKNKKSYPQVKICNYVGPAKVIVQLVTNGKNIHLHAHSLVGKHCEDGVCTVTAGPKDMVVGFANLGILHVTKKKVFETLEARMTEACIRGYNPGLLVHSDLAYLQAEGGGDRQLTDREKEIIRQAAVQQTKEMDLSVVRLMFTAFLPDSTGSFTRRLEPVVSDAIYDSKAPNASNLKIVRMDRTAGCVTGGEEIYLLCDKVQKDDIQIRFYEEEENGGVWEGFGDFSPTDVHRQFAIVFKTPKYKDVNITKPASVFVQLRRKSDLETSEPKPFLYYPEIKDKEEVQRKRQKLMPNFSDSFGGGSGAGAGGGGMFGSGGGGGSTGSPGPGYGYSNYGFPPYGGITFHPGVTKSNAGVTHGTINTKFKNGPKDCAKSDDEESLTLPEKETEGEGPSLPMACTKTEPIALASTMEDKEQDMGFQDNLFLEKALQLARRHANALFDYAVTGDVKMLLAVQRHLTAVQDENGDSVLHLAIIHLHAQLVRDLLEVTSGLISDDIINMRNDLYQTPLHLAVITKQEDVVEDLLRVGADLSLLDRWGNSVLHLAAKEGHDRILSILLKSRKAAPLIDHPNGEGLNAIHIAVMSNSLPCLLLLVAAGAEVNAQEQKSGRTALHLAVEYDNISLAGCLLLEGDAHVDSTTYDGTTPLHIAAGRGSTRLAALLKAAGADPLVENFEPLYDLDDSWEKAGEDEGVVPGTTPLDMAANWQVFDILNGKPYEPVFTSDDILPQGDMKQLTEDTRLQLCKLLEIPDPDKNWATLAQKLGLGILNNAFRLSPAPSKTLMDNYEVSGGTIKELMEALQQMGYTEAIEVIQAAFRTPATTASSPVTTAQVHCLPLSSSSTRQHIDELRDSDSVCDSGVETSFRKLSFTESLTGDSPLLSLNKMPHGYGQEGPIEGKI
Briefly: Inhibition of LPS-induced NF-kappaB p50 nuclear translocation in mouse RAW264.7 cells treated 2 hrs before LPS challenge measured up to 1 hr Western blot analysis. It is filed as cell-based.

The test system of data set [8] is RAW264.7. Briefly: Inhibition of NF-kappaB transcriptional activity expressed in mouse RAW264.7 cells assessed as inhibition of LPS-induced secretory alkaline phosphatase expression at 5 uM treated 2 hrs before LPS challenge measured after 18 hrs. It is filed as cell-based.
In data set [9] the test system is RAW264.7. Briefly: Inhibition of NF-kappaB activation in mouse RAW264.7 cells assessed as protection of LPS-induced IkappaBalpha degradation at 50 uM treated 2 hrs before LPS challenge measured after 10 to 20 mins by Western blotting. Type of data set: cell-based.
The subject of data set [10] is RAW264.7. Put plainly: Inhibition of NF-kappaB activation in mouse RAW264.7 cells assessed as inhibition of LPS-induced IkappaBalpha phosphorylation at 50 uM treated 2 hrs before LPS challenge measured after 15 to 20 mins by Western blotting. It is filed as cell-based.
The subject of data set [11] is RAW264.7. Briefly: Antiinflammatory activity in mouse RAW264.7 cells assessed as inhibition of LPS-induced iNOS expression treated 2 hrs before LPS challenge measured after 18 hrs by Western blotting. It is filed as functional, cell-based.
For data set [12], the system named is RAW264.7. Put plainly: Inhibition of LPS-induced NF-kappaB activation in mouse RAW264.7 cells assessed as inhibition JNK phosphorylation at 50 uM treated 2 hrs before LPS challenge measured after 30 mins by Western blot analysis. Type of data set: cell-based.
For data set [13], the system named is RAW264.7. Put plainly: Inhibition of NF-kappaB transcriptional activity expressed in mouse RAW264.7 cells assessed as inhibition of LPS-induced secretory alkaline phosphatase expression at 25 uM treated 2 hrs before LPS challenge measured after 18 hrs. It is filed as cell-based.
Data set [14] has as its target Transcription factor p65 (Mus musculus) (UniProt Q04207). Put plainly: Inhibition of LPS-induced NF-kappaB p65 nuclear translocation in mouse RAW264.7 cells treated 2 hrs before LPS challenge measured up to 1 hr Western blot analysis. Type of data set: cell-based.
The subject of data set [15] is RAW264.7. Briefly: Antiinflammatory activity in mouse RAW264.7 cells assessed as inhibition of LPS-induced TNFalpha by ELISA. Type of data set: functional, cell-based.
Data set [16] has as its system RAW264.7. Put plainly: Inhibition of LPS-induced Akt phosphorylation in mouse RAW264.7 cells treated 2 hrs before LPS challenge measured after 15 to 30 mins by Western blot analysis. Type of data set: cell-based.
The test system of data set [17] is RAW264.7. Briefly: Antiinflammatory activity in mouse RAW264.7 cells assessed as inhibition of LPS-induced nitric oxide production treated 2 hrs before LPS challenge measured after 18 hrs by Griess reaction method. Type of data set: functional, cell-based.
In data set [18] the test system is RAW264.7. Briefly: Inhibition of NF-kappaB transcriptional activity expressed in mouse RAW264.7 cells assessed as inhibition of LPS-induced secretory alkaline phosphatase expression at 15 uM treated 2 hrs before LPS challenge measured after 18 hrs. It is filed as cell-based.
The subject of data set [19] is RAW264.7. Put plainly: Inhibition of LPS-induced NF-kappaB activation in mouse RAW264.7 cells assessed as inhibition ERK phosphorylation at 50 uM treated 2 hrs before LPS challenge measured after 10 to 30 mins by Western blot analysis. Type of data set: cell-based.
Data set [20] relates to RAW264.7. Put plainly: Inhibition of NF-kappaB transcriptional activity expressed in mouse RAW264.7 cells assessed as inhibition of LPS-induced secretory alkaline phosphatase expression at 10 uM treated 2 hrs before LPS challenge measured after 18 hrs. Type of data set: cell-based.

Chain of Transcription factor p65 (Mus musculus) (Q04207 whole entry): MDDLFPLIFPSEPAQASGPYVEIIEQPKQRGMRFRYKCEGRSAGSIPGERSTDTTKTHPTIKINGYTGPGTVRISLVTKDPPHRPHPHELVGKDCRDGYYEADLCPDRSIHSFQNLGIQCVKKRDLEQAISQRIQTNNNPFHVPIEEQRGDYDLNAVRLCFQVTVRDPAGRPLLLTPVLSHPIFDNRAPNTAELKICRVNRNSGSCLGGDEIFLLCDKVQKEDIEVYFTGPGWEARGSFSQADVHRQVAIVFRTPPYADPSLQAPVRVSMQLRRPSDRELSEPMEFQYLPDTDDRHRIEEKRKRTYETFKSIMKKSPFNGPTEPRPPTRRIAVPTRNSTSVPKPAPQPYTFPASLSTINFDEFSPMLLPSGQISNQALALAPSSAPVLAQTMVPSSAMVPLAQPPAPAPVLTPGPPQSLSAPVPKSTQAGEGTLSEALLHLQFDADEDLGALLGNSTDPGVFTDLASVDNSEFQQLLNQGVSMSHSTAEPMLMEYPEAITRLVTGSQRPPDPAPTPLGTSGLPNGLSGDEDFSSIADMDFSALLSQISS

In general, inhibition refers to the percentage by which the read-out fell short of the control. By IC50 is commonly meant the concentration at which inhibition is half-maximal. With `CC1=C(CCc2ccoc2)[C@@]2(C)CC[C@@H](O)C(C)(C)[C@@H]2CC1=O`, the inhibition result with RAW264.7 [1] is “Dose-dependent effect”; in the data set with RAW264.7 [3] it was “Dose-dependent effect”; in the data set on RAW264.7 [5], “Dose-dependent effect”; in the data set on RAW264.7 [6] it was 90.3%; in data set [7] it was “Dose-dependent effect”; in the data set on RAW264.7 [8] it was 20.9%. Also, the inhibition entry in the data set with RAW264.7 [11] is “Dose-dependent effect”; in the data set on RAW264.7 [13] it was 69.1%; in data set [14], “Dose-dependent effect”; in the data set with RAW264.7 [18], 56.6%. Further, the Activity result in the data set on RAW264.7 [2] is “Non-toxic”. The inhibition entry with RAW264.7 [4], in the data set on RAW264.7 [10], in the data set with RAW264.7 [12], in the data set with RAW264.7 [16] and in the data set with RAW264.7 [19] was “Active” in each case. The outcome in the data set on RAW264.7 [9] was Active. The IC50 was 38.5 µM with RAW264.7 [15] and 27 µM with RAW264.7 [17].

In the case of `Cc1ccc(S(=O)(=O)N[C@@H](Cc2ccccc2)C(=O)CCl)cc1`, in the data set with RAW264.7 [20], the inhibition result is “Active”.
